According to the supplement of paper PMC13380429:

Columns and labels:
A549-ACE2 [1] = assay: phospholipidosis EC50; higher = less potent phospholipidosis inducer
[2] = system: A549-ACE2 infected with SARS-CoV-2; assay: morphology score (similarity to uninfected cells); higher = more like uninfected cells; details: 24 h
Calu-3 [3] = assay: drug sensitivity score (DSS) for viability; higher = more toxic; extreme values may be limits of the assay; details: 72 h
HepG2 [4] = assay: as above; details: 72 h
U2OS [5] = assay: as above; details: 72 h
Vero E6 [6] = assay: as above; details: 72 h
[7] = system: A549-ACE2 infected with SARS-CoV-2; assay: cell count relative to DMSO; higher = less toxic; details: 24 h
Caco-2 [8] = assay: cell viability relative to DMSO; higher = less toxic; details: 72 h
Calu-3 [9] = assay: as above; details: 72 h
HepG2 [10] = assay: as above; details: 72 h
U2OS [11] = assay: as above; details: 72 h
Vero E6 [12] = assay: as above; details: 72 h
[13] = system: A549-ACE2 infected with SARS-CoV-2; assay: SARS-CoV-2 infection rate relative to DMSO; higher = more infection; details: 24 h
A549-ACE2 [14] = assay: drug-induced phospholipidosis relative to tamoxifen; higher = more phospholipidosis
Caco-2 [15] = assay: relative viability EC50 (midpoint between 100% and the lowest measured viability); higher = less toxic; details: 72 h
Calu-3 [16] = assay: as above; details: 72 h
HepG2 [17] = assay: as above; details: 72 h
U2OS [18] = assay: as above; details: 72 h
Vero E6 [19] = assay: as above; details: 72 h
Caco-2 [20] = assay: drug sensitivity score (DSS) for viability; higher = more toxic; extreme values may be limits of the assay; details: 72 h

CCN(CC)CCCC(C)Nc1c2ccc(Cl)cc2nc2ccc(OC)cc12 (stereo not given) [mepacrine]
Details	morphology score, 0.1 µM	morphology score, 0.3 µM	morphology score, 1 µM	morphology score, 3 µM	phospholipidosis EC50, 24 h [µM]	phospholipidosis EC50, 48 h [µM]	phospholipidosis EC50, 72 h [µM]
A549-ACE2 [1]	–	–	–	–	15.8	5.62	3
[2]	0.52	0.52	0.63	0.79	–	–	–

Details	drug sensitivity score
Calu-3 [3]	5.7
HepG2 [4]	8.9
U2OS [5]	4
Vero E6 [6]	7.2

OC(CCN1CCCCC1)(c1ccccc1)C1CC2C=CC1C2 (stereo not given) [biperiden]
Details	SARS-CoV-2 infection rate, [13] [%]	cell count, [7] [%]	cell viability, Caco-2 [8] [%]	cell viability, Calu-3 [9] [%]	cell viability, HepG2 [10] [%]	cell viability, U2OS [11] [%]	cell viability, Vero E6 [12] [%]	morphology score, [2]
1 nM	–	–	93.2	103	93.3	99.4	92.7	–
10 nM	–	–	96	108	108	101	95.8	–
100 nM	–	–	99	108	99.5	102	95.2	–
0.3 µM	106	100	–	–	–	–	–	-0.01
1000 nM	–	–	97.9	101	110	97	96.2	–
3 µM	76	107	–	–	–	–	–	0.49
10 µM	55	112	–	–	–	–	–	0.74
10000 nM	–	–	104	95.4	97.2	95.3	101	–
30 µM	44	113	–	–	–	–	–	0.76

drug-induced phospholipidosis [%], A549-ACE2 [14]
Details	0.3 µM	0.833333 µM	3.33333 µM	6.66667 µM	10 µM	30 µM
24 h	6.44	3.39	3.47	5.73	10.9	32.9
48 h	5.46	-0.33	0.38	9.63	13.4	30.6
72 h	8.44	0.683	2.98	6.62	5.63	27.3

Details	drug sensitivity score	relative viability EC50 [µM]
Caco-2 [15]	–	> 10
Caco-2 [20]	0	–
Calu-3 [3]	0	–
Calu-3 [16]	–	> 10
HepG2 [4]	0	–
HepG2 [17]	–	> 10
U2OS [5]	0	–
U2OS [18]	–	> 10
Vero E6 [6]	0	–
Vero E6 [19]	–	> 10

COc1ccc(NC(=O)c2ccc(-c3ccc(-c4noc(C)n4)cc3C)cc2)cc1N1CCN(C)CC1
Details	SARS-CoV-2 infection rate [%]	cell count [%]	cell viability [%]	morphology score	phospholipidosis EC50 [µM]
A549-ACE2 [1], 24 h	–	–	–	–	0.719
A549-ACE2 [1], 48 h	–	–	–	–	0.984
A549-ACE2 [1], 72 h	–	–	–	–	1.27
Caco-2 [8], 1 nM	–	–	105	–	–
Caco-2 [8], 10 nM	–	–	92.5	–	–
Caco-2 [8], 100 nM	–	–	98.8	–	–
Caco-2 [8], 1000 nM	–	–	94.4	–	–
Caco-2 [8], 10000 nM	–	–	42.8	–	–
Calu-3 [9], 1 nM	–	–	110	–	–
Calu-3 [9], 10 nM	–	–	109	–	–
Calu-3 [9], 100 nM	–	–	99.2	–	–
Calu-3 [9], 1000 nM	–	–	102	–	–
Calu-3 [9], 10000 nM	–	–	7.9	–	–
HepG2 [10], 1 nM	–	–	97.5	–	–
HepG2 [10], 10 nM	–	–	109	–	–
HepG2 [10], 100 nM	–	–	98.9	–	–
HepG2 [10], 1000 nM	–	–	103	–	–
HepG2 [10], 10000 nM	–	–	19.1	–	–
U2OS [11], 1 nM	–	–	103	–	–
U2OS [11], 10 nM	–	–	102	–	–
U2OS [11], 100 nM	–	–	106	–	–
U2OS [11], 1000 nM	–	–	99.3	–	–
U2OS [11], 10000 nM	–	–	54.2	–	–
Vero E6 [12], 1 nM	–	–	106	–	–
Vero E6 [12], 10 nM	–	–	101	–	–
Vero E6 [12], 100 nM	–	–	105	–	–
Vero E6 [12], 1000 nM	–	–	96.6	–	–
Vero E6 [12], 10000 nM	–	–	31.6	–	–
[2], 0.1 µM	–	–	–	-0.16	–
[2], 0.3 µM	–	–	–	0.15	–
[2], 1 µM	–	–	–	0.46	–
[2], 3 µM	–	–	–	0.78	–
[7], 0.1 µM	–	97	–	–	–
[7], 0.3 µM	–	104	–	–	–
[7], 1 µM	–	109	–	–	–
[7], 3 µM	–	117	–	–	–
[13], 0.1 µM	106	–	–	–	–
[13], 0.3 µM	99	–	–	–	–
[13], 1 µM	85	–	–	–	–
[13], 3 µM	31	–	–	–	–

drug-induced phospholipidosis [%], A549-ACE2 [14]
Details	0.3 µM	0.833333 µM	3.33333 µM	6.66667 µM	10 µM	30 µM
24 h	2.12	35	61.8	56.7	35.2	28.3
48 h	4.59	17.3	79.1	76.8	56.3	–
72 h	4.03	12.8	79.8	80.8	–	–

Details	drug sensitivity score	relative viability EC50 [µM]
Caco-2 [15]	–	2.36
Caco-2 [20]	4	–
Calu-3 [3]	5	–
Calu-3 [16]	–	3.27
HepG2 [4]	4.2	–
HepG2 [17]	–	3.38
U2OS [5]	2.5	–
Vero E6 [6]	4.2	–
Vero E6 [19]	–	2.79

C[C@H]1[C@H](NC(=O)/C(=N\OC(C)(C)C(=O)O)c2csc(N)n2)C(=O)N1S(=O)(=O)O [aztreonam]
Details	SARS-CoV-2 infection rate, [13] [%]	cell count, [7] [%]	cell viability, Caco-2 [8] [%]	cell viability, Calu-3 [9] [%]	cell viability, HepG2 [10] [%]	cell viability, U2OS [11] [%]	cell viability, Vero E6 [12] [%]	morphology score, [2]
1 nM	–	–	96.9	103	93	99.3	93	–
10 nM	–	–	91.7	99.8	108	93.9	95.2	–
100 nM	–	–	94.5	94.6	96.3	98.4	93.3	–
0.3 µM	105	102	–	–	–	–	–	0.12
1000 nM	–	–	96.2	95.6	101	97.6	96.1	–
3 µM	109	97	–	–	–	–	–	-0.22
10 µM	98	99	–	–	–	–	–	0.07
10000 nM	–	–	104	103	104	92.5	102	–
30 µM	93	107	–	–	–	–	–	0.28

drug-induced phospholipidosis [%], A549-ACE2 [14]
Details	0.3 µM	0.833333 µM	3.33333 µM	6.66667 µM	10 µM	30 µM
24 h	0.05	-0.48	-0.4	1.8	0.46	0.6
48 h	4.27	0.47	-0.36	-0.48	2.78	5.88
72 h	2.06	-3.37	-0.186	-0.381	3.05	4.25

Details	drug sensitivity score	relative viability EC50 [µM]
Caco-2 [15]	–	> 10
Caco-2 [20]	0	–
Calu-3 [3]	0	–
Calu-3 [16]	–	> 10
HepG2 [4]	0	–
HepG2 [17]	–	> 10
U2OS [5]	0	–
U2OS [18]	–	> 10
Vero E6 [6]	0	–
Vero E6 [19]	–	> 10

C=CCN(C)CCCCCCOc1ccc(C(=O)c2ccc(Br)cc2)c(F)c1 [Ro-48-8071]
Details	SARS-CoV-2 infection rate [%]	cell count [%]	cell viability [%]	morphology score	phospholipidosis EC50 [µM]
A549-ACE2 [1], 24 h	–	–	–	–	3.35
A549-ACE2 [1], 48 h	–	–	–	–	4.65
A549-ACE2 [1], 72 h	–	–	–	–	5.61
Caco-2 [8], 1 nM	–	–	97.5	–	–
Caco-2 [8], 10 nM	–	–	101	–	–
Caco-2 [8], 100 nM	–	–	102	–	–
Caco-2 [8], 1000 nM	–	–	81.7	–	–
Caco-2 [8], 10000 nM	–	–	45.9	–	–
Calu-3 [9], 1 nM	–	–	95.1	–	–
Calu-3 [9], 10 nM	–	–	95.7	–	–
Calu-3 [9], 100 nM	–	–	97.4	–	–
Calu-3 [9], 1000 nM	–	–	99.7	–	–
Calu-3 [9], 10000 nM	–	–	55.3	–	–
HepG2 [10], 1 nM	–	–	104	–	–
HepG2 [10], 10 nM	–	–	98.3	–	–
HepG2 [10], 100 nM	–	–	92.1	–	–
HepG2 [10], 1000 nM	–	–	93.7	–	–
HepG2 [10], 10000 nM	–	–	34	–	–
U2OS [11], 1 nM	–	–	98.6	–	–
U2OS [11], 10 nM	–	–	102	–	–
U2OS [11], 100 nM	–	–	93.5	–	–
U2OS [11], 1000 nM	–	–	96	–	–
U2OS [11], 10000 nM	–	–	79	–	–
Vero E6 [12], 1 nM	–	–	104	–	–
Vero E6 [12], 10 nM	–	–	100	–	–
Vero E6 [12], 100 nM	–	–	100	–	–
Vero E6 [12], 1000 nM	–	–	94.6	–	–
Vero E6 [12], 10000 nM	–	–	84.5	–	–
[2], 0.3 µM	–	–	–	-0.04	–
[2], 3 µM	–	–	–	0.67	–
[2], 10 µM	–	–	–	0.73	–
[2], 30 µM	–	–	–	0.1	–
[7], 0.3 µM	–	103	–	–	–
[7], 3 µM	–	114	–	–	–
[7], 10 µM	–	117	–	–	–
[7], 30 µM	–	70	–	–	–
[13], 0.3 µM	102	–	–	–	–
[13], 3 µM	59	–	–	–	–
[13], 10 µM	25	–	–	–	–
[13], 30 µM	38	–	–	–	–

drug-induced phospholipidosis [%], A549-ACE2 [14]
Details	0.3 µM	0.833333 µM	3.33333 µM	6.66667 µM	10 µM	30 µM
24 h	2.62	7.33	44.1	86.2	90.2	82
48 h	5.45	7.84	36.4	96.4	115	–
72 h	4.46	5.92	27.7	95.3	127	–

Details	drug sensitivity score	relative viability EC50 [µM]
Caco-2 [15]	–	1.31
Caco-2 [20]	5.5	–
Calu-3 [3]	2.3	–
HepG2 [4]	4.6	–
HepG2 [17]	–	2.38
U2OS [5]	1.1	–
U2OS [18]	–	> 10
Vero E6 [6]	0.7	–
Vero E6 [19]	–	> 10

CN1CCCCC1Cn1cc(C(=O)c2cc([N+](=O)[O-])ccc2I)c2ccccc21 (stereo not given) [AM-1241]
Details	SARS-CoV-2 infection rate, [13] [%]	cell count, [7] [%]	cell viability, Caco-2 [8] [%]	cell viability, Calu-3 [9] [%]	cell viability, HepG2 [10] [%]	cell viability, U2OS [11] [%]	cell viability, Vero E6 [12] [%]	morphology score, [2]
1 nM	–	–	92.7	103	89.1	94	95.4	–
10 nM	–	–	92.8	103	101	97.6	99.2	–
100 nM	–	–	100	99.3	107	91.7	96.5	–
0.3 µM	107	104	–	–	–	–	–	0.18
1000 nM	–	–	94.4	94.4	102	98.1	97.1	–
3 µM	85	109	–	–	–	–	–	0.36
10 µM	63	118	–	–	–	–	–	0.87
10000 nM	–	–	97.8	104	102	99	106	–
30 µM	33	115	–	–	–	–	–	0.66

drug-induced phospholipidosis [%], A549-ACE2 [14]
Details	0.3 µM	0.833333 µM	3.33333 µM	6.66667 µM	10 µM	30 µM
24 h	-1.12	0.49	3.57	9.5	15.9	81.8
48 h	-0.88	-2.35	0.06	1.85	8.12	104
72 h	-1.12	-4.89	-3.06	1.99	5.24	111

Details	drug sensitivity score	relative viability EC50 [µM]
Caco-2 [15]	–	> 10
Caco-2 [20]	0	–
Calu-3 [3]	0	–
Calu-3 [16]	–	> 10
HepG2 [4]	0	–
HepG2 [17]	–	> 10
U2OS [5]	0	–
U2OS [18]	–	> 10
Vero E6 [6]	0	–
Vero E6 [19]	–	> 10
